Measurements reported in paper PMC7614683, “A small molecule PI3Kα activator for cardioprotection and neuroregeneration” (Nature, 2023).
Read-outs that look alike come from different tables or passages of the source.

Assays:
[1] = target: PIK3C3 (hVPS34) (Homo sapiens, UniProt Q8NEB9); assay: SelectScreen Adapta; type: biochemical
Protocol: (§1) 133 protein kinases and 7 lipid kinases were counterscreened, with 1938 used at 1 μM, using the Adapta, Lantha and Z-LYTE assays (SelectScreen Kinase Profiling Service; Thermofisher – experimental details of these assays can be found here: https://www.thermofisher.com/uk/en/home/industrial/pharma-biopharma/drug-discovery-development/target-and-lead-identification-and-validation/kinasebiology/kinase-activity-assays.html. The tree represention in KinMap[59] generated courtesy of Cell Signaling Technology, Inc. (www.cellsignal.com). mTORC1 (mTOR/RAPTOR/LST8) protein complex and ATM kinase and substrates were produced as previously described[57],[60]. Screening of 1938 was conducted using SuperSep Phos-Tag 50 μmol/l 100 x 100 x 6.6 mm 17-well (192-18001/199-18011) gels. For ATM assays, 100 nM ATM was incubated for 30 min at 30°C with 5 μM GST-p53 and 1 mM ATP, in the absence or presence of 200 μM 1938 in ATM Kinase Buffer (50 mM HEPES pH 7.5, 100 mM NaCl, 10% glycerol, 2 mM […], 5 mM MgCl2). As a positive control for ATM activation, the same reaction was carried out with 100 nM ATM/5 μM GST-p53/1 mM ATP in the presence of 100 nM Mre11-Rad50-Nbs1 (MRN) complex, a known activator of ATM[61]. For mTORC1 assays, 50 nM mTORC1 complex (mTOR/LST8/RAPTOR) was incubated for 3 h at 30°C with 15 μM 4E-BP1, 10 mM MgCl2 and 250 μM ATP, in the absence or presence of 200 μM 1938. As a ‘positive’ control, a higher concentration (150 nM) of mTORC1 complex (mTOR/LST8/RAPTOR) was incubated for 3 h at 30°C with 15 μM 4E-BP1, 10 mM MgCl2 and 250 μM ATP. Kinase reactions were quenched by addition of SDS-PAGE Loading Buffer (as per manufacturer’s instructions) and freezing at -20°C before being run on the Phos-tag gels at 150 V for 90 min. Gels were then stained using InstantBlue™ Coomassie, and quantified using BioRad Image Lab Software. Kinase assays were carried out in triplicate.

[2] = target: T1, NUAK1 (ARK5) (Homo sapiens, UniProt O60285); assay: SelectScreen Adapta; type: biochemical
T1 sequence (O60285 1-661): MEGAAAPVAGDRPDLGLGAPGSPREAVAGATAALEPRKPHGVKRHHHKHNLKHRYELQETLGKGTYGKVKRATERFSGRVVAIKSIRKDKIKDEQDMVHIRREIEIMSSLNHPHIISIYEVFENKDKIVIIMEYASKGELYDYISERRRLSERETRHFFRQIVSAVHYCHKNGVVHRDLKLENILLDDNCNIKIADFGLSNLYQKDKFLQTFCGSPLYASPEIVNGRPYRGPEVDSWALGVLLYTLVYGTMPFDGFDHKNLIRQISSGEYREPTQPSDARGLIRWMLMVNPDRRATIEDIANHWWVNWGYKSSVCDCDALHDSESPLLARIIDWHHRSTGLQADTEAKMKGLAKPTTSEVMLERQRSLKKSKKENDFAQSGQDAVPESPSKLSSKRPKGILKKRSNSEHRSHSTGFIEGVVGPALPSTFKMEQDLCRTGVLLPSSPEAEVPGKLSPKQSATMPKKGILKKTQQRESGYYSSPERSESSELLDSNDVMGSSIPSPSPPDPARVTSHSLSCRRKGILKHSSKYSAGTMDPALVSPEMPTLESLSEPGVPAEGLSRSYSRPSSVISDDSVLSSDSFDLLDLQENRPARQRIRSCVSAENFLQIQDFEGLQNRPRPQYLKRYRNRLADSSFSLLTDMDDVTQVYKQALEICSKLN
Protocol: as §1

[3] = target: T2, full length p110α/p85α (Homo sapiens, UniProt P42336); assay: Differential scanning fluorimetry; type: binding; conditions: mean ± SD, n=3; read-out: Kd for PI3Kα by differential scanning fluorimetry
T2 construct: Full-length human p110α was expressed either in a complex with full-length human p85α (for HTS, biochemistry and HDX-MS); 6xHis tag followed by TEV protease site (N); host or cells: Spodoptera frugiperda Sf9, baculovirus
Protocol: Thermal denaturation was followed using intrinsic protein fluorescence measured with the NanoTemper Prometheus NT48 instrument (Nanotemper Technologies, München, Germany). Samples in HBS-P (Cytiva) supplemented with 5% (v/v) DMSO containing 3 μM full length p110α/p85α and a 1:2 dilution series of 1938 (from 440 μM to 13.8 nM) were loaded into standard capillaries and heated at 2 °C/min from 15 to 95 °C. The first derivative of the fluorescence emission ratio 350/330 nm were analyzed using the PR.ThermControl v2.3.1 (NanoTemper), to define the Tm. Independent experiments using the same protein and compound stocks were performed in triplicate. Data were fitted using Prism 9.4.1 (GraphPad Software Inc). Dissociation constants were calculated using fits to a single-site ligand depletion model: (2) T=T0+(T1−T0){([CT]+[PT]+[KD])−([CT]+[PT]+KD)^2−4[CT][PT]}/2[PT] where T0 and T1 are the Tm in the absence of titrating compound and at saturation respectively, [PT] and [CT] are the total concentrations of protein and compound respectively and KD is the dissociation constant.

[4] = system: PI3Kα-WT MEFs; assay: CellTiter-Glo cell assay, PI3Kα-WT MEFs; type: cell-based, mouse
Protocol: MEFs were seeded at 5000 cells per well in 96-well plates in DMEM supplemented with 10% FBS and 1% P/S, and allowed to attach overnight. The next day, cells were serum starved for 4 h prior to compound treatment in fresh serum-free DMEM. Compounds solubilised in DMSO were diluted 1:2 in a 12-point concentration response curve in DMSO. Intermediate plates were prepared by transferring 4 μl of compounds in DMSO into 96 μl of serum-free DMEM media. This was then used to treat cell plates by transferring 12.5 μl of solution from the intermediate plate into 87.5 μl of serum-free DMEM in the cell plates. […] Cell plates were incubated for 24 h, 48 h or 72 h at 37°C, 5% CO2, followed by determination of cell survival using the CellTiter-Glo® reagent according to manufacturer’s instructions (Promega #G7571). Endpoint luminescence was measured using CLARIOstar (BMG). Compound data were analyzed using GraphPad Prism 8.

Sequence of PIK3C3 (hVPS34) (Q8NEB9 whole entry): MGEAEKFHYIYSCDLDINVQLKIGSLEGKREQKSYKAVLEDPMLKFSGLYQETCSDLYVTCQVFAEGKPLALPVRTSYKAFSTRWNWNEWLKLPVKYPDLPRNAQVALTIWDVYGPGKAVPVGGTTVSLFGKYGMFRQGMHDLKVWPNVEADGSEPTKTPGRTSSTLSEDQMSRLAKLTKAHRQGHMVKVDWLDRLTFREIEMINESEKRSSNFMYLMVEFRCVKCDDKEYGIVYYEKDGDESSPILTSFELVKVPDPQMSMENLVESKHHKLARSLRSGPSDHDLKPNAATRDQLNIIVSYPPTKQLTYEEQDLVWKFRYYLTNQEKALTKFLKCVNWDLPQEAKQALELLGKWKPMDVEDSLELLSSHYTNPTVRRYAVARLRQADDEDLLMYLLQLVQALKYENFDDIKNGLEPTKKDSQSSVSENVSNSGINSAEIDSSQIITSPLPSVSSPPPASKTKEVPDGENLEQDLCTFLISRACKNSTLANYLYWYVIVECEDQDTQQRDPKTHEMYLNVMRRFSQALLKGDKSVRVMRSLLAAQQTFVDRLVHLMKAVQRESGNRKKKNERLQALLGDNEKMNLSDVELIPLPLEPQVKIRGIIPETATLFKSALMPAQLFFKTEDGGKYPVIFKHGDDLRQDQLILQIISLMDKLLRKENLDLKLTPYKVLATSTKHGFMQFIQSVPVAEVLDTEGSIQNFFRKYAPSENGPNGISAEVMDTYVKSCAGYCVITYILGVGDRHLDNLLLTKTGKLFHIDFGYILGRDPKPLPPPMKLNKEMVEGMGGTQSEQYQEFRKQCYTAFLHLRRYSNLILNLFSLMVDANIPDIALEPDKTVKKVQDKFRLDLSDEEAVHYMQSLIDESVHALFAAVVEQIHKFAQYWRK
T2 sequence (P42336 whole entry): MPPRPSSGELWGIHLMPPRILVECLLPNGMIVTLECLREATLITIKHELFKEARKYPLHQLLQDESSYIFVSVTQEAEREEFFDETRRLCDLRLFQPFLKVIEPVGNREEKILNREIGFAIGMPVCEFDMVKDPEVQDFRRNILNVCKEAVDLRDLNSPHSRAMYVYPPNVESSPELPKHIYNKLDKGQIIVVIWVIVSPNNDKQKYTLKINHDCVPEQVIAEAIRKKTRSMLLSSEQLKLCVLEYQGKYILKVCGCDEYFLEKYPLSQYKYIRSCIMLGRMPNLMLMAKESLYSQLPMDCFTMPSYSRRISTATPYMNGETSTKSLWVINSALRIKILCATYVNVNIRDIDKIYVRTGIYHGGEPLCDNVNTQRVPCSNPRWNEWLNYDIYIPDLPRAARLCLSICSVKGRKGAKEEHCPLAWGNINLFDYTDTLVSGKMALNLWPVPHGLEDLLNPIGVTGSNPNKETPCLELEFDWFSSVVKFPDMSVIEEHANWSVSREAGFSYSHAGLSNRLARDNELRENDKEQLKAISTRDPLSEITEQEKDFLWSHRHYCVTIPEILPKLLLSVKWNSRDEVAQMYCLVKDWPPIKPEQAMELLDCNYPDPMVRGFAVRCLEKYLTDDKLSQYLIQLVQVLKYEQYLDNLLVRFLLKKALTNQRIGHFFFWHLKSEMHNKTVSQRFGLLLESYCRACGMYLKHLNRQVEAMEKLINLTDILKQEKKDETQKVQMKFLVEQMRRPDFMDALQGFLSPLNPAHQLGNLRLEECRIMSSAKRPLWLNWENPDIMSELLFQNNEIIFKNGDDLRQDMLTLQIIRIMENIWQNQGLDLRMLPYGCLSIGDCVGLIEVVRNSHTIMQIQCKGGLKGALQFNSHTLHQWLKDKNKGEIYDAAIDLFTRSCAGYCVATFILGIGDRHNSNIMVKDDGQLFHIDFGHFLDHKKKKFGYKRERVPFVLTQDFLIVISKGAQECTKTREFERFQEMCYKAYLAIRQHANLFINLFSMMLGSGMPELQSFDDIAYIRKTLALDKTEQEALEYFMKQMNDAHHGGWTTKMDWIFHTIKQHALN
T2 sequence (P27986 whole entry partner): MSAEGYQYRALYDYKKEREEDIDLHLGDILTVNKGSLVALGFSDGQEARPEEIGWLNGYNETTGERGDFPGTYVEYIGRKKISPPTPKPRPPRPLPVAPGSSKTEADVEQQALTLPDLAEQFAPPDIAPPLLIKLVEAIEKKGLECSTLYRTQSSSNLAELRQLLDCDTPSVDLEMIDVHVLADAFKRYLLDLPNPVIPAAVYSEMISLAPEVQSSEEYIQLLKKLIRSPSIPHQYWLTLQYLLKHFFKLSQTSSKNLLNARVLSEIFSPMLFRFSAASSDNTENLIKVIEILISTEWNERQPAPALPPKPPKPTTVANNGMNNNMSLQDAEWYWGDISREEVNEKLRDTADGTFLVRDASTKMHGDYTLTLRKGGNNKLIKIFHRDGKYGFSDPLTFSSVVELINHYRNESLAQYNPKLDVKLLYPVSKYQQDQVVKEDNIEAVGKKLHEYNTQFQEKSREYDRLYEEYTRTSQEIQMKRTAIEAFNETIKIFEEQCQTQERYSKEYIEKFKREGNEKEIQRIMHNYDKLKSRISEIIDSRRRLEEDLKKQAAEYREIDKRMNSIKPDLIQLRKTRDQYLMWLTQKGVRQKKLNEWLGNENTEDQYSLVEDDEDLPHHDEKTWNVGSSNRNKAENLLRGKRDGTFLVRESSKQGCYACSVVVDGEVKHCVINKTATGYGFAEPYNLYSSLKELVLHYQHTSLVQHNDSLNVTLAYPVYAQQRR

CCN1CCN(c2ccc(Nc3cc(Nc4cccc5c4N(C(C)=O)CC5)ccn3)cc2)CC1 [Compound 1938]
inhibition at 1 µM ([1]; read-out: % Inhibition Point 1): 3.28%
inhibition at 1 µM ([1]; read-out: % Inhibition Point 2): 7.6%
inhibition at 1 µM ([1]; read-out: % Inhibition mean): 5.44%
inhibition at 1 µM ([2]; read-out: % Inhibition Point 1): 45%
inhibition at 1 µM ([2]; read-out: % Inhibition Point 2): 39%
inhibition at 1 µM ([2]; read-out: % Inhibition mean): 42%
Kd [3]: 16 ± 2 µM
concentrations with a decrease in ATP levels (PI3Kα-independent effects) ([4]; 24h): > 7.5 µM
concentration from which non-PI3Kα-dependent effects are observed ([4]; 48h and 72h incubation, PI3Kα-WT and PI3Kα-KO MEFs): 2 to 4 µM
EC50 ([4]; Mus musculus, 24h treatment, read-out: EC50 of increase in metabolic activity (ATP content)): ~0.5 µM
